Laboratory results as given in patent US7947726B2, “Non-steroidal ligands for the glucocorticoid receptor, and compositions thereof” (The Regents of the University of California, priority 2002, dated 2011).

Molecular target: T1, PR (Homo sapiens, UniProt P06401)
T1 sequence (P06401 1-933): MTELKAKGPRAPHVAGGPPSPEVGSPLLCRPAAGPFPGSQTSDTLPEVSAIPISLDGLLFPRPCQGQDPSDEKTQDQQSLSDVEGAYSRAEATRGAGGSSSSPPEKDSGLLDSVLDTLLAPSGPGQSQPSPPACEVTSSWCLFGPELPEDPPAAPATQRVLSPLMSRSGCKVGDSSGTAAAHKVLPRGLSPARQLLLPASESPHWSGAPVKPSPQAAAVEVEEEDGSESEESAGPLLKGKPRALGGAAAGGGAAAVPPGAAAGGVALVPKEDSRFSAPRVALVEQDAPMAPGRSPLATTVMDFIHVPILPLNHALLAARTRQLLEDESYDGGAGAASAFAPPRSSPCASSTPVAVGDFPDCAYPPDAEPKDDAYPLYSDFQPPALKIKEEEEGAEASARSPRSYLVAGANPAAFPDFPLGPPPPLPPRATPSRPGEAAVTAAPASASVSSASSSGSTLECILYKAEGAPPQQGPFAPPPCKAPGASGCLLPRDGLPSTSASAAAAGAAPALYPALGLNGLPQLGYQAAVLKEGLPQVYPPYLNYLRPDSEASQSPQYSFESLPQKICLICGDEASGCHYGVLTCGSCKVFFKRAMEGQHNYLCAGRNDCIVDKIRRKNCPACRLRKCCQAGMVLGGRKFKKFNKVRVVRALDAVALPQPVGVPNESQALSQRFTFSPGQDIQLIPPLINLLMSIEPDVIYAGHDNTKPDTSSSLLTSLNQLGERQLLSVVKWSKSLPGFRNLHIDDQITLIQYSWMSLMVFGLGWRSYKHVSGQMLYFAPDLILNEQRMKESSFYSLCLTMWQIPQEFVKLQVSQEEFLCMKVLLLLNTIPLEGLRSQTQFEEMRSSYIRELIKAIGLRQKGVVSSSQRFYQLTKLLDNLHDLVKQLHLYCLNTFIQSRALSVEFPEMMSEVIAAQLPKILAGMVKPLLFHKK
Assay: PR activation (max fold activation)
Type: cell-based
Conditions: Table 4

PR max fold activation: 255 ± 72
SMILES: CC(=O)[C@H]1CC[C@H]2[C@@H]3CCC4=CC(=O)CC[C@]4(C)[C@H]3CC[C@]12C [Progesterone, reference compound]
